Biological target: T1, MC1-R (Homo sapiens, UniProt Q01726)
T1 construct: or, for MC1-R, in HBL cells; endogenous in cells; host or cells: HBL cells
Test: Assay for agonist activity: intracellular cAMP accumulation (functional assay)
Assay type: cell-based
Conditions: functional assays at MC1-R; for EC50: HBL cells that express MC1-R, cAMP; for Emax: maximum efficacy compared to reference agonist NDP-α-MSH
Experimental: Accumulation of intracellular cAMP is examined as a measure of the ability of the test compounds to elicit a functional response in HEK-293 cells that express MC4-R, or, for MC1-R, in HBL cells. Confluent HEK-293 cells that express recombinant hMC4-R, or HBL cells that express MC1-R, are detached from culture plates by incubation in enzyme-free cell dissociation buffer. Dispersed cells are suspended in Earle's Balanced Salt Solution containing 10 mM HEPES (pH 7.5), 1 mM MgCl2, 1 mM glutamine, 0.5% albumin and 0.3 mM 3-isobutyl-1-methyl-xanthine (IBMX), a phosphodiesterase inhibitor. The cells are plated in 96-well plates at a density of 0.5 x 10^5 cells per well and pre-incubated for 30 minutes. Cells are exposed for 1 hour at 37° C. to test compounds dissolved in DMSO (final DMSO concentration of 1%) at a concentration range of 0.05-5000 nM in a total assay volume of 200 μL. NDP-α-MSH is used as the reference agonist. At the end of the incubation period, cells are disrupted by the addition of 50 μL of lysis buffer (cAMP EIA kit, Amersham) followed by vigorous pipetting. Levels of cAMP in the lysates are determined using a cAMP EIA kit (Amersham). Data analysis is performed by nonlinear regression analysis with Graph-Pad Prism® software. The maximum efficacies of the test compounds are compared to that achieved by the reference melanocortin agonist NDP-α-MSH.

T1 sequence (Q01726 whole entry): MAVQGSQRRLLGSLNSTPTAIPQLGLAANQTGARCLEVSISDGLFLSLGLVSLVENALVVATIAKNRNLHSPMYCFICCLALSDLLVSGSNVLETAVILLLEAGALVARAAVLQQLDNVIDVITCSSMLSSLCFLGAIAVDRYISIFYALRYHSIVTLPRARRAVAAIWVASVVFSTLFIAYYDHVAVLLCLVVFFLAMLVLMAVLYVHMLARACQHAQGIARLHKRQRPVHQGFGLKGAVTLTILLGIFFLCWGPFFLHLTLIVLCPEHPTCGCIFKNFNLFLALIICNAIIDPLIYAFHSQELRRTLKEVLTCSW

Row | functional status at MC1-R | EC50 [nM] | Emax [%] | SMILES
1 | partial agonist | 20 | 45 | COc1ccc(C[C@@H](NC(=O)CCc2c[nH]cn2)C(=O)N2CCC3(CC2)C(=O)N(Cc2cccnc2)CN3c2ccccc2)cc1 [Example 158, 3-(1H-Imidazol-4-yl)-N-[(R)-1-(4-methoxy-benzyl)-2-oxo-2-(4-oxo-1-phenyl-3-pyridin-3-ylmethyl-1,3,8-triaza-spiro[4.5]dec-8-yl)-ethyl]-propionamide]
2 | partial agonist | 14 | 42 | COc1ccc(C[C@@H](NC(=O)CCc2c[nH]cn2)C(=O)N2CCC3(CC2)C(=O)N(Cc2cccc(Cl)c2)CN3c2ccccc2)cc1 [Example 155, N-[(R)-2-[3-(3-Chloro-benzyl)-4-oxo-1-phenyl-1,3,8-triaza-spiro[4.5]dec-8-yl]-1-(4-methoxy-benzyl)-2-oxo-ethyl]-3-(1H-imidazol-4-yl)-propionamide]
3 | partial agonist | 38 | 56 | COC(=O)CN1CN(c2ccccc2)C2(CCN(C(=O)[C@@H](Cc3ccc(OC)cc3)NC(=O)CCc3cnc[nH]3)CC2)C1=O [Example 137, {8-[(R)-2-(3-3H-Imidazol-4-yl-propionylamino)-3-(4-methoxy-phenyl)-propionyl]-4-oxo-1-phenyl-1,3,8-triaza-spiro[4.5]dec-3-yl}-acetic acid methyl ester]
4 | partial agonist | 23 | 45 | COc1ccc(C[C@@H](NC(=O)CCc2c[nH]cn2)C(=O)N2CCC3(CC2)C(=O)N(Cc2ccc(Cl)cc2)CN3c2ccccc2)cc1 [Example 156, N-[(R)-2-[3-(4-Chloro-benzyl)-4-oxo-1-phenyl-1,3,8-triaza-spiro[4.5]dec-8-yl]-1-(4-methoxy-benzyl)-2-oxo-ethyl]-3-(1H-imidazol-4-yl)-propionamide]
5 | partial agonist | 2 | 50 | COc1ccc(C[C@@H](NC(=O)CCc2cnc[nH]2)C(=O)N2CCC3(CC2)C(=O)N(C2CCCC2)CN3c2ccccc2)cc1 [Example 152, N-[(R)-2-(3-Cyclopentyl-4-oxo-1-phenyl-1,3,8-triaza-spiro[4.5]dec-8-yl)-1-(4-methoxy-benzyl)-2-oxo-ethyl]-3-(3H-imidazol-4-yl)-propionamide]
6 | partial agonist | 41 | 38 | COc1ccc(C[C@@H](NC(=O)CCc2c[nH]cn2)C(=O)N2CCC3(CC2)C(=O)N(Cc2ccccn2)CN3c2ccccc2)cc1 [Example 157, 3-(1H-Imidazol-4-yl)-N-[(R)-1-(4-methoxy-benzyl)-2-oxo-2-(4-oxo-1-phenyl-3-pyridin-2-ylmethyl-1,3,8-triaza-spiro[4.5]dec-8-yl)-ethyl]-propionamide]
7 | partial agonist | 20 | 43 | CCCCN1CN(c2ccccc2)C2(CCN(C(=O)[C@@H](Cc3ccc(OC)cc3)NC(=O)[C@@H](N)Cc3cncn3C)CC2)C1=O [Example 142, (S)-2-Amino-N-[(R)-2-(3-butyl-4-oxo-1-phenyl-1,3,8-triaza-spiro[4.5]dec-8-yl)-1-(4-methoxy-benzyl)-2-oxo-ethyl]-3-(3-methyl-3H-imidazol-4-yl)-propionamide]
8 | partial agonist | 177 | 45 | COc1ccc(C[C@@H](NC(=O)[C@@H](N)Cc2cncn2C)C(=O)N2CCC3(CC2)C(=O)N(C)CN3c2ccccc2)cc1 [Example 139, (S)-2-Amino-N-[(R)-1-(4-methoxy-benzyl)-2-(3-methyl-4-oxo-1-phenyl-1,3,8-triaza-spiro[4.5]dec-8-yl)-2-oxo-ethyl]-3-(3-methyl-3H-imidazol-4-yl)-propionamide]
9 | partial agonist | 6 | 49 | COc1ccc(C[C@@H](NC(=O)CCc2cnc[nH]2)C(=O)N2CCC3(CC2)C(=O)N(C2CCC2)CN3c2ccccc2)cc1 [Example 159, N-[(R)-2-(3-Cyclobutyl-4-oxo-1-phenyl-1,3,8-triaza-spiro[4.5]dec-8-yl)-1-(4-methoxy-benzyl)-2-oxo-ethyl]-3-(3H-imidazol-4-yl)-propionamide]
10 | partial agonist | 3 | 71 | COc1ccc(C[C@@H](NC(=O)CCc2cnc[nH]2)C(=O)N2CCC3(CC2)C(=O)N(C(C)C)CN3c2ccccc2)cc1 [Example 150, 3-(3H-Imidazol-4-yl)-N-[(R)-2-(3-isopropyl-4-oxo-1-phenyl-1,3,8-triaza-spiro[4.5]dec-8-yl)-1(4-methoxy-benzyl)-2-oxo-ethyl]-propionamide]
11 | partial agonist | 25 | 42 | CCN1CN(c2ccccc2)C2(CCN(C(=O)[C@@H](Cc3ccc(OC)cc3)NC(=O)[C@@H](N)Cc3cncn3C)CC2)C1=O [Example 140, (S)-2-Amino-N-[(R)-2-(3-ethyl-4-oxo-1-phenyl-1,3,8-triaza-spiro[4.5]dec-8-yl)-1-(4-methoxy-benzyl)-2-oxo-ethyl]-3-(3-methyl-3H-imidazol-4-yl)-propionamide]
12 | partial agonist | 17 | 46 | COc1ccc(C[C@@H](NC(=O)[C@@H](N)Cc2cncn2C)C(=O)N2CCC3(CC2)C(=O)N(Cc2ccccc2)CN3c2ccccc2)cc1 [Example 144, (S)-2-Amino-N-[(R)-2-(3-benzyl-4-oxo-1-phenyl-1,3,8-triaza-spiro[4.5]dec-8-yl)-1-(4-methoxy-benzyl)-2-oxo-ethyl]-3-(3-methyl-3H-imidazol-4-yl)-propionamide]
13 | partial agonist | 25 | 60 | COc1ccc(C[C@@H](NC(=O)CCc2cnc[nH]2)C(=O)N2CCC3(CC2)C(=O)N(CCO)CN3c2ccccc2)cc1 [Example 149, N-[(R)-2-[3-(2-Hydroxy-ethyl)-4-oxo-1-phenyl-1,3,8-triaza-spiro[4.5]dec-8-yl]-1-(4-methoxy-benzyl)-2-oxo-ethyl]-3-(3H-imidazol-4-yl)-propionamide]
14 | partial agonist | 6 | 45 | COc1ccc(C[C@@H](NC(=O)[C@@H](N)Cc2cncn2C)C(=O)N2CCC3(CC2)C(=O)N(C(C)C)CN3c2ccccc2)cc1 [Example 141, (S)-2-Amino-N-[(R)-2-(3-isopropyl-4-oxo-1-phenyl-1,3,8-triaza-spiro[4.5]dec-8-yl)-1-(4-methoxy-benzyl)-2-oxo-ethyl]-3-(3-methyl-3H-imidazol-4-yl)-propionamide]
15 | partial agonist | 340 | 44 | COC(=O)CN1CN(c2ccccc2)C2(CCN(C(=O)[C@@H](Cc3ccc(OC)cc3)NC(=O)CCCCN)CC2)C1=O [Example 138, {8-[(R)-2-(5-Amino-pentanoylamino)-3-(4-methoxy-phenyl)-propionyl]-4-oxo-1-phenyl-1,3,8-triaza-spiro[4.5]dec-3-yl}-acetic acid methyl ester]
16 | partial agonist | 7 | 37 | COc1ccc(C[C@@H](NC(=O)[C@@H](N)Cc2cncn2C)C(=O)N2CCC3(CC2)C(=O)N(C2CCCC2)CN3c2ccccc2)cc1 [Example 151, (S)-2-Amino-N-[(R)-2-(3-cyclopentyl-4-oxo-1-phenyl-1,3,8-triaza-spiro[4.5]dec-8-yl)-1-(4-methoxy-benzyl)-2-oxo-ethyl]-3-(3-methyl-3H-imidazol-4-yl)-propionamide]
17 | partial agonist | 12 | 54 | COc1ccc(C[C@@H](NC(=O)CCc2c[nH]cn2)C(=O)N2CCC3(CC2)C(=O)N(Cc2ccccc2)CN3c2ccccc2)cc1 [Example 153, N-[(R)-2-(3-Benzyl-4-oxo-1-phenyl-1,3,8-triaza-spiro[4.5]dec-8-yl)-1-(4-methoxy-benzyl)-2-oxo-ethyl]-3-(1H-imidazol-4-yl)-propionamide]
18 | partial agonist | 26 | 50 | COc1ccc(C[C@@H](NC(=O)CCc2c[nH]cn2)C(=O)N2CCC3(CC2)C(=O)N(Cc2ccccc2Cl)CN3c2ccccc2)cc1 [Example 154, N-[(R)-2-[3-(2-Chloro-benzyl)-4-oxo-1-phenyl-1,3,8-triaza-spiro[4.5]dec-8-yl]-1-(4-methoxy-benzyl)-2-oxo-ethyl]-3-(1H-imidazol-4-yl)-propionamide]
19 | partial agonist | 0.7 | 75 | COc1ccc(C[C@@H](NC(=O)C[C@H]2Cc3ccccc3CN2)C(=O)N2CCC3(CC2)C(=O)N(C(C)C)CN3c2ccccc2)cc1 [Example 164, N-[(R)-2-(3-Isopropyl-4-oxo-1-phenyl-1,3,8-triaza-spiro[4.5]dec-8-yl)-1-(4-methoxy-benzyl)-2-oxo-ethyl]-2-(R)-1,2,3,4-tetrahydro-isoquinolin-3-yl-acetamide]
